Results on 25 molecules are retold here after US9388189B2, “Pyrrolotriazinone derivatives as PI3K inhibitors” (ALMIRALL, S.A., priority 2012, dated 2016).

For orientation: IC50 means the point on the concentration scale where inhibition reaches its midpoint.

In the assay the target is PI3Kδ (PI3Kd) (Homo sapiens (Human), UniProt O00329). Put plainly: PI3K HTRF enzymatic inhibition assay (cell-free), delta isoform. The settings on record: read-out: IC50 PI3Kd HTRF; recombinant PI3K delta, [ATP] 15 μM, [PIP2] 2 μM, 30 min preincubation. (TR-FRET usually uses a lanthanide donor and a delayed reading to cut background.)
PI3Kδ (PI3Kd), sequence (O00329 whole entry, canonical isoform): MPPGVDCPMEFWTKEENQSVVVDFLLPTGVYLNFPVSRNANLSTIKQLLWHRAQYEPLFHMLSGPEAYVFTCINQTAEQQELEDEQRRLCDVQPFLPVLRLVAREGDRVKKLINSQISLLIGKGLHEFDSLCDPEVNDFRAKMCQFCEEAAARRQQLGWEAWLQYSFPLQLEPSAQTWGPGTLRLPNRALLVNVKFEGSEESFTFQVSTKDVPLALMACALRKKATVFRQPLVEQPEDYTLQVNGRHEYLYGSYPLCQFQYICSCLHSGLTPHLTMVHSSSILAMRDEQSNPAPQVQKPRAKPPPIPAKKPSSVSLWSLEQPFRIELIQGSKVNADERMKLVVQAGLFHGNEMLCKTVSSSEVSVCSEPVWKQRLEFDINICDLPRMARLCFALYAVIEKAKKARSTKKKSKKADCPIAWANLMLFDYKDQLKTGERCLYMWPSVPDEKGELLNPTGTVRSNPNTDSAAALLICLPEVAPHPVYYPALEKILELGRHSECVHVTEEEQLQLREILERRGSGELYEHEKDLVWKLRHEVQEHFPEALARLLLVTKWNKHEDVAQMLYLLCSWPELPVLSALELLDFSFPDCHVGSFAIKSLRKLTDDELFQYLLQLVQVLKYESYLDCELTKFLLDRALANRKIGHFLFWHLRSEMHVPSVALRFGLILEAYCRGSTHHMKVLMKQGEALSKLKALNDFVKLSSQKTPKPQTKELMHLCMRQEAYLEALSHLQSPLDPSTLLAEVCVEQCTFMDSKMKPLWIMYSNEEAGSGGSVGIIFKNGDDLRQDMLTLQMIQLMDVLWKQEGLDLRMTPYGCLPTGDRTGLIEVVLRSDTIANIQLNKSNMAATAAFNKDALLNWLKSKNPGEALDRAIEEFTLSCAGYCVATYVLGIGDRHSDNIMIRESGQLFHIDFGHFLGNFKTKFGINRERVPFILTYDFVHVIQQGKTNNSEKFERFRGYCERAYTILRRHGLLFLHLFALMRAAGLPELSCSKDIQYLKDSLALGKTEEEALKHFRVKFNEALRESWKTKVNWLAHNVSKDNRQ
PI3Kδ (PI3Kd), sequence (P27986 whole entry partner, canonical isoform): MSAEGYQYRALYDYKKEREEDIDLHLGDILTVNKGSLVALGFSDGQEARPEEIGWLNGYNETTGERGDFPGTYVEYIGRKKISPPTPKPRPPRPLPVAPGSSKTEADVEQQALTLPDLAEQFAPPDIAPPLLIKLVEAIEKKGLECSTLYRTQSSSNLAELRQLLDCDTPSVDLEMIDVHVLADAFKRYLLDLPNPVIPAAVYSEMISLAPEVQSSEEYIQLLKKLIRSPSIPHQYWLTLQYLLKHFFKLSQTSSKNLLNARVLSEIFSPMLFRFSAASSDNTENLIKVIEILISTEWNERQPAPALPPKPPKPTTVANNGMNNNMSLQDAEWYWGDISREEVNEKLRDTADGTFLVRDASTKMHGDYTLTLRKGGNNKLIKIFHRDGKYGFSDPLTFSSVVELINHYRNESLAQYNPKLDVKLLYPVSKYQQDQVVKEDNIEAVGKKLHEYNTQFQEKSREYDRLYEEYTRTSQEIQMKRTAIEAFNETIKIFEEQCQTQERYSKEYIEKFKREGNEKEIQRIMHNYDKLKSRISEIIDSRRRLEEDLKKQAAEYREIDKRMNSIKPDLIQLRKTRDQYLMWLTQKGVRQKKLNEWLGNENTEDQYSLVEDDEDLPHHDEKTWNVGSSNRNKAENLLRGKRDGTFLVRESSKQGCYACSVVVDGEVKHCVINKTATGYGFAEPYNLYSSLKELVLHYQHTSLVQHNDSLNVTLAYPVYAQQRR
From the text: Compounds were screened for their ability to inhibit PI3Kα (PI3Ka), PI3Kβ (PI3Kb), PI3Kδ (PI3Kd) and PI3Kγ (PI3Kg) using a cell-free based PI3K HTRF™ assay (Millipore, ref. #33-017).
PI-3 Kinase HTRF kit (ref. #33-037) and the different PI3K recombinant isoforms (ref. #14-602, ref. #14-603, ref. #14-604, ref. #15-558 for Alpha, Beta, Delta and Gamma respectively) were purchased at Millipore (expressed in insect cells). ATP was purchased at Sigma Aldrich (ref. #A7699).
The compounds were pre-incubated with the enzyme for 30 min before starting of the catalytic reaction. [PIP2] was used at its Km. […] Time of assay and [Enzyme] were optimized to work in the linear range. Stop and Detection mixtures were used as specified in the Millipore PI-3 Kinase kit.
Reaction time and enzyme concentration in the assay will depend of each batch.
All experiments were analysed using Activity Base software from IDBS and the four-parameter log equation.
For `C[C@H](Nc1ncnc(N)c1-c1nnn[nH]1)c1nn2cccc2c(=O)n1-c1ccccc1` [Example 1, (S)-2-(1-(6-Amino-5-(1H-tetrazol-5-yl)pyrimidin-4-ylamino)ethyl)-3-phenylpyrrolo[1,2-f][1,2,4]triazin-4(3H)-one], the IC50 worked out at 15 nM.
Under `Cc1ccn2nc([C@H](C)Nc3ncnc4[nH]cc(-c5cc(NS(C)(=O)=O)cc6[nH]ncc56)c34)n(-c3ccccc3)c(=O)c12` [Example 181, (S)—N-(4-(4-((1-(5-Methyl-4-oxo-3-phenyl-3,4-dihydropyrrolo[2,1-f][1,2,4]triazin-2-yl)ethyl)amino)-7H-pyrrolo[2,3-d]pyrimidin-5-yl)-1H-indazol-6-yl)methanesulfonamide] stands 5 nM; under `C[C@H](Nc1ncnc(N)c1-c1cc(O)cc(F)c1)c1nn2ccc(Sc3ccccc3)c2c(=O)n1-c1ccccc1` [Example 34, (S)-2-(1-((6-Amino-5-(3-fluoro-5-hydroxyphenyl)pyrimidin-4-yl)amino)ethyl)-3-phenyl-5-(phenylthio)pyrrolo[2,1-f][1,2,4]triazin-4(3H)-one], 12 nM.
Under `Cc1ccn2nc([C@H](C)Nc3ncnc4[nH]cc(-c5ccn(CC(F)(F)F)n5)c34)n(-c3ccccc3)c(=O)c12` [Example 145, (S)-5-Methyl-3-phenyl-2-(1-((5-(1-(2,2,2-trifluoroethyl)-1H-pyrazol-3-yl)-7H-pyrrolo[2,3-d]pyrimidin-4-yl)amino)ethyl)pyrrolo[2,1-f][1,2,4]triazin-4(3H)-one] stands 0.2 nM; under `Cc1ccn2nc([C@H](C)Nc3ncnc(N)c3-c3cccc(NS(=O)(=O)c4ccc(O)cc4)c3)n(-c3ccccc3)c(=O)c12` [Example 106, (S)—N-(3-(4-Amino-6-((1-(5-methyl-4-oxo-3-phenyl-3,4-dihydropyrrolo[2,1-f][1,2,4]triazin-2-yl)ethyl)amino)pyrimidin-5-yl)phenyl)-4-hydroxybenzenesulfonamide], 0.4 nM.
Under `Cc1ccn2nc([C@H](C)Nc3ncnc4[nH]cc(-c5ccn(Cc6ccccc6O)n5)c34)n(-c3ccccc3)c(=O)c12` [Example 159, (S)-2-(1-((5-(1-(2-Hydroxybenzyl)-1H-pyrazol-3-yl)-7H-pyrrolo[2,3-d]pyrimidin-4-yl)amino)ethyl)-5-methyl-3-phenylpyrrolo[2,1-f][1,2,4]triazin-4(3H)-one] stands 4 nM.
In the case of `Cc1ccn2nc([C@H](C)Nc3ncnc4[nH]cc(-c5cccc6[nH]ncc56)c34)n(-c3ccccc3)c(=O)c12` [Example 52], the half-inhibitory concentration (IC50) stood at 1 nM.
Under `Cc1ccn2nc([C@H](C)Nc3ncnc(N)c3-c3ccc4cc[nH]c4c3)n(-c3ccccc3)c(=O)c12` [Example 15, (S)-2-(1-((6-Amino-5-(1H-indol-6-yl)pyrimidin-4-yl)amino)ethyl)-5-methyl-3-phenylpyrrolo[2,1-f][1,2,4]triazin-4(3H)-one] stands 3 nM; under `Cc1ccn2nc([C@H](C)Nc3ncnc(N)c3-c3cncc(OCC(F)(F)F)c3)n(-c3ccccc3)c(=O)c12` [Example 132, (S)-2-(1-((6-Amino-5-(5-(2,2,2-trifluoroethoxyl)pyridin-3-yl)pyrimidin-4-yl)amino)ethyl)-5-methyl-3-phenylpyrrolo[2,1-f][1,2,4]triazin-4(3H)-one], 2 nM.
For `Cc1ccn2nc([C@H](C)Nc3ncnc4[nH]cc(-c5cccc(Cl)c5O)c34)n(-c3ccccc3)c(=O)c12` [Example 104, (S)-2-(1-((5-(3-Chloro-2-hydroxyphenyl)-7H-pyrrolo[2,3-d]pyrimidin-4-yl)amino)ethyl)-5-methyl-3-phenylpyrrolo[2,1-f][1,2,4]triazin-4(3H)-one], the IC50 worked out at 1 nM.
Under `C[C@H](Nc1ncnc(N)c1C#N)c1nn2ccc(Cc3cccc(O)c3)c2c(=O)n1-c1ccccc1` [Example 74, (S)-4-Amino-6-((1-(5-(3-hydroxybenzyl)-4-oxo-3-phenyl-3,4-dihydropyrrolo[2,1-f][1,2,4]triazin-2-yl)ethyl)amino)pyrimidine-5-carbonitrile] stands 36 nM.
Take `Cc1ccn2nc([C@H](C)Nc3ncnc4[nH]cc(-c5cc(O)cc(NS(=O)(=O)CCN(C)C)c5)c34)n(-c3ccccc3)c(=O)c12` [Example 150, (S)-2-(Dimethylamino)-N-(3-hydroxy-5-(4-((1-(5-methyl-4-oxo-3-phenyl-3,4-dihydropyrrolo[2,1-f][1,2,4]triazin-2-yl)ethyl)amino)-7H-pyrrolo[2,3-d]pyrimidin-5-yl)phenyl)ethanesulfonamide]: the half-inhibitory concentration (IC50) came out at 1 nM.
Under `C[C@H](Nc1ncnc2[nH]cc(-c3cc(NS(C)(=O)=O)cc(OS(C)(=O)=O)c3)c12)c1nn2cccc2c(=O)n1-c1ccccc1` [Example 176, (S)-3-(Methylsulfonamido)-5-(4-((1-(4-oxo-3-phenyl-3,4-dihydropyrrolo[2,1-f][1,2,4]triazin-2-yl)ethyl)amino)-7H-pyrrolo[2,3-d]pyrimidin-5-yl)phenyl methanesulfonate] stands 1 nM; under `CC(C)N1CCN(C(=O)CCCC#Cc2ccn3nc([C@H](C)Nc4ncnc(N)c4C#N)n(-c4ccccc4)c(=O)c23)CC1` [Example 128, (S)-4-Amino-6-((1-(5-(6-(4-isopropylpiperazin-1-yl)-6-oxohex-1-yn-1-yl)-4-oxo-3-phenyl-3,4-dihydropyrrolo[2,1-f][1,2,4]triazin-2-yl)ethyl)amino)pyrimidine-5-carbonitrile], 4 nM; under `COc1cc(-c2c(N)ncnc2N[C@@H](C)c2nn3ccc(C)c3c(=O)n2-c2ccccc2)cc(C(F)(F)F)n1` [Example 137, (S)-2-(1-((6-Amino-5-(2-methoxy-6-(trifluoromethyl)pyridin-4-yl)pyrimidin-4-yl)amino)ethyl)-5-methyl-3-phenylpyrrolo[2,1-f][1,2,4]triazin-4(3H)-one], 4 nM.
Under `Cc1ccn2nc([C@H](C)Nc3ncnc(N)c3-c3cncc(C(F)(F)F)c3)n(-c3ccccc3)c(=O)c12` [Example 114, (S)-2-(1-((6-Amino-5-(5-(trifluoromethyl)pyridin-3-yl)pyrimidin-4-yl)amino)ethyl)-5-methyl-3-phenylpyrrolo[2,1-f][1,2,4]triazin-4(3H)-one] stands 0.5 nM; under `Cc1ccn2nc([C@H](C)Nc3ncnc4[nH]cc(-c5cc(O)cc(NS(=O)(=O)c6ccc(O)cc6)c5)c34)n(-c3ccccc3)c(=O)c12` [Example 125, (S)-4-Hydroxy-N-(3-hydroxy-5-(4-((1-(5-methyl-4-oxo-3-phenyl-3,4-dihydropyrrolo[2,1-f][1,2,4]triazin-2-yl)ethyl)amino)-7H-pyrrolo[2,3-d]pyrimidin-5-yl)phenyl)benzenesulfonamide], 0.7 nM; under `COc1ncc(-c2c(N)ncnc2N[C@@H](C)c2nn3ccc(C)c3c(=O)n2-c2ccccc2)cc1NS(=O)(=O)c1ccc(F)cc1` [Example 22, (S)—N-(5-(4-Amino-6-((1-(5-methyl-4-oxo-3-phenyl-3,4-dihydropyrrolo[2,1-f][1,2,4]triazin-2-yl)ethyl)amino)pyrimidin-5-yl)-2-methoxypyridin-3-yl)-4-fluorobenzenesulfonamide], 12 nM.
As to `Cc1ccn2nc([C@H](C)Nc3ncnc4[nH]cc(-c5ccnc(N6CCC(N(C)C)CC6)c5)c34)n(-c3ccccc3)c(=O)c12` [Example 225, (S)-2-(1-((5-(2-(4-(Dimethylamino)piperidin-1-yl)pyridin-4-yl)-7H-pyrrolo[2,3-d]pyrimidin-4-yl)amino)ethyl)-5-methyl-3-phenylpyrrolo[2,1-f][1,2,4]triazin-4(3H)-one], the IC50 was found to be 0.4 nM.
As to `Cc1ccn2nc([C@H](C)Nc3ncnc(N)c3-c3cc(O)cc(C(F)(F)F)c3)n(-c3ccccc3)c(=O)c12` [Example 28, (S)-2-(1-((6-Amino-5-(3-hydroxy-5-(trifluoromethyl)phenyl)pyrimidin-4-yl)amino)ethyl)-5-methyl-3-phenylpyrrolo[2,1-f][1,2,4]triazin-4(3H)-one], the IC50 is 5 nM.
Under `Cc1ccn2nc([C@H](C)Nc3ncnc(N)c3-c3cc(O)cc(NS(=O)(=O)c4ccc(F)cc4F)c3)n(-c3ccccc3)c(=O)c12` [Example 130, (S)—N-(3-(4-Amino-6-((1-(5-methyl-4-oxo-3-phenyl-3,4-dihydropyrrolo[2,1-f][1,2,4]triazin-2-yl)ethyl)amino)pyrimidin-5-yl)-5-hydroxyphenyl)-2,4-difluorobenzenesulfonamide] stands 1 nM; under `CCNc1nnc(-c2c[nH]c3ncnc(N[C@@H](C)c4nn5ccc(C)c5c(=O)n4-c4ccccc4)c23)s1` [Example 120, (S)-2-(1-((5-(5-(Ethylamino)-1,3,4-thiadiazol-2-yl)-7H-pyrrolo[2,3-d]pyrimidin-4-yl)amino)ethyl)-5-methyl-3-phenylpyrrolo[2,1-f][1,2,4]triazin-4(3H)-one], 0.4 nM.
Under `C[C@H](Nc1ncnc(N)c1-c1cnn(CCO)c1)c1nn2cccc2c(=O)n1-c1ccccc1` [Example 5, (S)-2-(1-((6-Amino-5-(1-(2-hydroxyethyl)-1H-pyrazol-4-yl)pyrimidin-4-yl)amino)ethyl)-3-phenylpyrrolo[2,1-f][1,2,4]triazin-4(3H)-one] stands 17 nM.
Under `Cc1ccn2nc([C@H](C)Nc3ncnc(N)c3-c3cc(O)c4ccn(S(=O)(=O)c5ccc(O)cc5F)c4c3)n(-c3ccccc3)c(=O)c12` [Example 171, (S)-2-(1-((6-Amino-5-(1-((2-fluoro-4-hydroxyphenyl)sulfonyl)-4-hydroxy-1H-indol-6-yl)pyrimidin-4-yl)amino)ethyl)-5-methyl-3-phenylpyrrolo[2,1-f][1,2,4]triazin-4(3H)-one] stands 5 nM; under `Cc1nnc(-c2cccc(-c3c[nH]c4ncnc(N[C@@H](C)c5nn6ccc(C)c6c(=O)n5-c5ccccc5)c34)c2)o1` [Example 188, (S)-5-Methyl-2-(1-((5-(3-(5-methyl-1,3,4-oxadiazol-2-yl)phenyl)-7H-pyrrolo[2,3-d]pyrimidin-4-yl)amino)ethyl)-3-phenylpyrrolo[2,1-f][1,2,4]triazin-4(3H)-one], 0.4 nM.
